In article PMC6407594 (Journal of Enzyme Inhibition and Medicinal Chemistry, 2019):
Read-outs that look alike come from different tables or passages of the source.

Assays:
murine SMOX [1] = biological target: T1, murine SMOX (Mus musculus, UniProt Q99K82); test: Inhibition of SMOX activity, spermine as substrate; format: biochemical; details: for SMOX Kmapp/Km0: 50 μM compound, relative to control
murine PAOX = murine PAOX (Mus musculus, UniProt Q8C0L6); test: Inhibition of PAOX activity, N1AcSPM as substrate; format: biochemical; details: for PAOX Kmapp/Km0: 50 μM compound, relative to control; for PAOX Kmapp: Km of N1AcSPM in the presence of 50 μM compound
Chain of murine PAOX (Q8C0L6 whole entry): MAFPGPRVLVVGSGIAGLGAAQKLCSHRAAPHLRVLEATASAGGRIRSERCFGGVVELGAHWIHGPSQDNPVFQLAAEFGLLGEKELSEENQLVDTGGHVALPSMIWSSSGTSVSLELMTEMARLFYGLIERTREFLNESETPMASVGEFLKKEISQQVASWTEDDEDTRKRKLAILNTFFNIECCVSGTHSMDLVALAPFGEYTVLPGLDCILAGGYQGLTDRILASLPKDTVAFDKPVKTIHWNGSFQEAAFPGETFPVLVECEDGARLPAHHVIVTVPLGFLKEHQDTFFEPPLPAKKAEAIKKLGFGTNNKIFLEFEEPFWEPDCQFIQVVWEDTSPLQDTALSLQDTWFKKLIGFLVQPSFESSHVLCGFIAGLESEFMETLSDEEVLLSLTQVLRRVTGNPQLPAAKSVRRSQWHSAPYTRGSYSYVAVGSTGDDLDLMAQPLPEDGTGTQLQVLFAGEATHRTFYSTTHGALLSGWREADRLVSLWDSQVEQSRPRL

[2] = biological target: PAOX activity in HT22 cells (Mus musculus, UniProt Q8C0L6); test: PAOX activity in whole HT22 cells; format: cell-based
Chain of PAOX activity in HT22 cells (Q8C0L6 whole entry): as above

[3] = cited from earlier work
ODC = details: at a concentration of 10 μM; cited from earlier work
SSAT = details: at a concentration of 10 μM; cited from earlier work
murine SMOX [4] = biological target: T1, murine SMOX; details: read-out: SMOX Ki; purified murine SMOX; cited from earlier work
human MAO A = details: cited from earlier work
MAOs = test: Amine oxidase activity in HT22 cell lysate, tyramine as substrate; format: biochemical, mouse; details: tyramine 1 mM, after pre-incubation with inhibitor
[5] = Km of SPM in the presence of 50 μM compound

T1 sequence (Q99K82 whole entry): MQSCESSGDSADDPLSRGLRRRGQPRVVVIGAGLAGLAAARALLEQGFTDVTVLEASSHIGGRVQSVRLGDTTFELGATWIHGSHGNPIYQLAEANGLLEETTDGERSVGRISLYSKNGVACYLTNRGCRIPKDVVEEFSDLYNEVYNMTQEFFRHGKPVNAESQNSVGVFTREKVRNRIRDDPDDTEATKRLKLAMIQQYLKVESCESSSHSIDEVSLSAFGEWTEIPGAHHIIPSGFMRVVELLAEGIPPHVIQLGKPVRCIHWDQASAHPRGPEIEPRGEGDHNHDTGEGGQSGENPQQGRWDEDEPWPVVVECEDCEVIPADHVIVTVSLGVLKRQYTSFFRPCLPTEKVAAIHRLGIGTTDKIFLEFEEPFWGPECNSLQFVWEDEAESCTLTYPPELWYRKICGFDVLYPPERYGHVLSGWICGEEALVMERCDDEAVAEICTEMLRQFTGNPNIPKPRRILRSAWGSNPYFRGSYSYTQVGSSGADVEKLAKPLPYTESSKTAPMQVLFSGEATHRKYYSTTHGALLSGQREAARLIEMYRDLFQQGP

| Ki (murine SMOX [1]) | SMOX Kmapp/Km0 (murine SMOX [1]) | SMOX Kmapp (murine SMOX [1]; [5]) | PAOX Kmapp/Km0 (murine PAOX) | PAOX Kmapp (murine PAOX) | Compound | also measured |
| --- | --- | --- | --- | --- | --- | --- |
| 3.8 ± 0.2 µM | – | – | – | – | [H]/N=C(\N/C(=N/[H])NCCCCCCNC(=N)NC(=N)Nc1ccc(Cl)cc1)Nc1ccc(Cl)cc1 [Chlorhexidine, chlorhexidine, reference compound] | SMOX Kmapp (murine SMOX [1]): 1402 ± 124 µM |
| – | 2.3 | 1135 ± 141 µM | 108 | 41 ± 221 µM | c1ccc(CNCCCCCCCCCCCCNCc2ccccc2)cc1 [Compound 9, N1,N^12-dibenzyldodecanediamine] | – |
| 1.2 ± 0.1 µM | 18 | 8940 ± 1600 µM | – | – | COc1ccccc1CNCCCCCCNCCCCCCCCNCCCCCCNCc1ccccc1OC [Compound 10, Methoctramine] | Mode of inhibition of SMOX (murine SMOX [1]; double reciprocal plots): competitive inhibitors; Ki (murine PAOX): 0.01 ± 0.0015 µM; Mode of inhibition of PAOX (murine PAOX; double reciprocal plots): competitive inhibitors; IC50 [2]: 0.16 ± 0.01 µM; IC50 in HT22 cells relative to Ki of recombinant enzyme ([2]; IC50/Ki): about 16 times; Cytotoxicity [3]: low cytotoxicity; Effect on ODC (ODC): did not significantly affect; Effect on SSAT (SSAT): did not significantly affect |
| – | 1.21 | 598 ± 156 µM | 112 | 43 ± 9 µM | COc1ccccc1CN(C)CCCCCC(=O)N(C)CCCCCCCCN(C)C(=O)CCCCCN(C)Cc1ccccc1OC [Compound 14, Caproctamine] | – |
| – | 1.2 | 600 ± 100 µM | 9 | 3.40 ± 0.26 µM | NCCCCCCCCCCCCN [DIADO, 1,12-diaminododecane, reference compound] | Ki (murine SMOX [4]): > 1000 µM; Behaviour towards MAO A (human MAO A): excellent substrate |
| – | – | – | – | – | C#CCN(C)Cc1ccccc1 [pargyline] | Activity with tyramine with respect to control sample (MAOs): 2% |
